Measurements reported in patent US7491819B1 (priority 2004, dated 2009).
pIC50: −log10 of the molar value.

What follows are molecules tested against T1, HIV-integrase (Human immunodeficiency virus type 1 group M subtype B, UniProt P12497) (assay: HIV-Integrase Inhibition Activity (SPA bead strand-transfer assay)). Conditions: Table 1; read-out: Activity (HIV-integrase inhibition, IC50 class).
T1 construct: Recombinant integrase (0.26 ng) was incubated with the beads
Format: biochemical
Method in brief: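 Biotin-labelled substrate DNA (5 pmole) bound to streptavidin SPA beads, preloaded with recombinant integrase (0.26 ng) for 90 min at 37° C, then washed. Inhibitors and 0.1 fmol P33-labelled target DNA added; reaction stopped with 10 mM EDTA. Integration read as scintillation CPM.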
`CC1(C)OCCn2c1nc(C(=O)NCc1ccccc1-c1ccc(N)nc1)c(O)c2=O` [Example 157, Pyrimido[2,1-c][1,4]oxazine-2-carboxamide, N-[[2-(6-amino-3-pyridinyl)phenyl]methyl]-4,6,7,9-tetrahydro-3-hydroxy-9,9-dimethyl-4-oxo-] showed a pIC50 of 7.00 to 8.70.
`CCCn1cc(-c2ccccc2CNC(=O)c2nc3n(c(=O)c2O)CCOC3(C)C)cn1` [Example 158, Pyrimido[2,1-c][1,4]oxazine-2-carboxamide, 4,6,7,9-tetrahydro-3-hydroxy-9,9-dimethyl-4-oxo-N-[[2-(1-propyl-1H-pyrazol-4-yl)phenyl]methyl]-] showed a pIC50 of 7.00 to 8.70.
Molecule `CN1CCN(c2cc(-c3ccccc3CNC(=O)c3nc4n(c(=O)c3O)CCOC4(C)C)ccn2)CC1` [Example 159, Pyrimido[2,1-c][1,4]oxazine-2-carboxamide, 4,6,7,9-tetrahydro-3-hydroxy-9,9-dimethyl-N-[[2-[2-(4-methyl-1-piperazinyl)-4-pyridinyl]phenyl]methyl]-4-oxo-] has a pIC50 of 6.00 to 7.00.
`CC1(C)OCCn2c1nc(C(=O)NCc1ccccc1-c1ccccc1)c(O)c2=O` [Example 160, Pyrimido [2,1-c][1,4]oxazine-2-carboxamide, N-([1,1′-biphenyl]-2-ylmethyl)-4,6,7,9-tetrahydro-3-hydroxy-9,9-dimethyl-4-oxo-] gave a pIC50 of 7.00 to 8.70.
With `COc1cc(Cl)ccc1-c1ccccc1CNC(=O)c1nc2n(c(=O)c1O)CCOC2(C)C` [Example 161, Pyrimido[2,1-c][1,4]oxazine-2-carboxamide, N-[(4′-chloro-2′-methoxy[1,1′-biphenyl]-2-yl)methyl]-4,6,7,9-tetrahydro-3-hydroxy-9,9-dimethyl-4-oxo-] the pIC50 was 7.00 to 8.70.
`Cc1ccc(-c2ccccc2CNC(=O)c2nc3n(c(=O)c2O)CCOC3(C)C)cc1` [Example 162, Pyrimido[2,1-c][1,4]oxazine-2-carboxamide, 4,6,7,9-tetrahydro-3-hydroxy-9,9-dimethyl-N-[(4′-methyl[1,1′-biphenyl]-2-yl)methyl]-4-oxo-] was tested, and the pIC50 was 7.00 to 8.70.
In the case of `Cc1cccc(-c2ccccc2CNC(=O)c2nc3n(c(=O)c2O)CCOC3(C)C)c1` [Example 163, Pyrimido[2,1-c][1,4]oxazine-2-carboxamide, 4,6,7,9-tetrahydro-3-hydroxy-9,9-dimethyl-N-[(3′-methyl[1,1′-biphenyl]-2-yl)methyl]-4-oxo-], the pIC50 was 7.00 to 8.70.
`COc1cccc(-c2ccccc2CNC(=O)c2nc3n(c(=O)c2O)CCOC3(C)C)c1` [Example 164, Pyrimido[2,1-c][1,4]oxazine-2-carboxamide, 4,6,7,9-tetrahydro-3-hydroxy-N-[(3′-methoxy[1,1′-biphenyl]-2-yl)methyl]-9,9-dimethyl-4-oxo-] was tested, and the pIC50 was 7.00 to 8.70.
Work on `CC1(C)OCCn2c1nc(C(=O)NCc1ccccc1-c1cccc(O)c1)c(O)c2=O` [Example 165, Pyrimido[2,1-c][1,4]oxazine-2-carboxamide, 4,6,7,9-tetrahydro-3-hydroxy-N-[(3′-hydroxy[1,1′-biphenyl]-2-yl)methyl]-9,9-dimethyl-4-oxo-] yielded a pIC50 of 7.00 to 8.70.
`CC1(C)OCCn2c1nc(C(=O)NCc1ccccc1-c1ccc(C#N)cc1)c(O)c2=O` [Example 166, Pyrimido[2,1-c][1,4]oxazine-2-carboxamide, N-[(4′-cyano[1,1′-biphenyl]-2-yl)methyl]-4,6,7,9-tetrahydro-3-hydroxy-9,9-dimethyl-4-oxo-] was tested, and the pIC50 was 6.00 to 7.00.
For `CC1(C)OCCn2c1nc(C(=O)NCc1ccccc1-c1cccc(C#N)c1)c(O)c2=O` [Example 167, Pyrimido[2,1-c][1,4]oxazine-2-carboxamide, N-[(3′-cyano[1,1′-biphenyl]-2-yl)methyl]-4,6,7,9-tetrahydro-3-hydroxy-9,9-dimethyl-4-oxo-], the pIC50 was 7.00 to 8.70.
Work on `CC1(C)OCCn2c1nc(C(=O)NCc1ccccc1-c1ccc(N3CCOCC3)cc1)c(O)c2=O` [Example 168, Pyrimido[2,1-c][1,4]oxazine-2-carboxamide, 4,6,7,9-tetrahydro-3-hydroxy-9,9-dimethyl-N-[[4′-(4-morpholinyl)[1,1′-biphenyl]-2-yl]methyl]-4-oxo-] yielded a pIC50 of 7.00 to 8.70.
